From patent US20200276139A1 (Evoke Pharma, Inc., priority 2017, published 2020)

How the values were obtained:
[1] = Study METO-IN-006: open-label, randomized, 4-treatment crossover pharmacokinetic/bioequivalence study of intranasal metoclopramide (Gimoti 15, 16, 17 mg) vs Reglan Tablets 10 mg; type: in vivo, human; conditions: overall population; 16 and 17 mg doses; prior comparative bioavailability study
[2] = as above; type: in vivo, human; conditions: for AUC0-inf Inter-CV % (Between-Subject) / AUC0-inf Intra-CV % (Within-Subject) / AUC0-t Inter-CV % (Between-Subject) / AUC0-t Intra-CV % (Within-Subject) / Cmax Inter-CV % (Between-Subject) / Cmax Intra-CV % (Within-Subject): bioequivalence analysis over all treatments
Excerpt: In the study, approximately 108 healthy subjects may be enrolled to allow approximately 100 subjects to complete the study.
The pharmacokinetic study will be an open-label, randomized, 4-treatment, 4-period, 4-sequence crossover study. […] Further, the subjects will undergo screening, in which the eligibility of the subjects will be assessed after completion of inclusion and exclusion criteria. […] Samples will be collected over many hours after the dose. Subjects will return to the clinic after the minimum washout for subsequent doses until the four-period cross-over is completed.
Blood samples will be collected prior to dosing, and at predetermined time periods after each dose. […] Relevant pharmacokinetic parameters will be summarized using descriptive statistics.
Collect blood from a subject. • 2. Gently mix the collected blood prior to centrifugation and place immediately on ice. • 3. Centrifuge the sample in a refrigerated centrifuge. • 4. Immediately following centrifugation, gently remove plasma from the packed cells. • 5. Freeze the plasma samples immediately at approximately −20° C. or lower.

[3] = Reglan package insert; cited from earlier work

bioequivalence criteria for AUC [1]: met the bioequivalence criteria | AUC0-inf Inter-CV % (Between-Subject) ([2]; Female): 43.72% | AUC0-inf Intra-CV % (Within-Subject) ([2]; Female): 48.14% | AUC0-t Inter-CV % (Between-Subject) ([2]; Female): 43.12% | AUC0-t Intra-CV % (Within-Subject) ([2]; Female): 52.62% | Cmax Inter-CV % (Between-Subject) ([2]; Female): 35.03% | Cmax Intra-CV % (Within-Subject) ([2]; Female): 58.04% | AUC0-inf Inter-CV % (Between-Subject) ([2]; Male): 44.81% | AUC0-inf Intra-CV % (Within-Subject) ([2]; Male): 55.82% | AUC0-t Inter-CV % (Between-Subject) ([2]; Male): 52.65% | AUC0-t Intra-CV % (Within-Subject) ([2]; Male): 62.88% | Cmax Inter-CV % (Between-Subject) ([2]; Male): 54.25% | Cmax Intra-CV % (Within-Subject) ([2]; Male): 78.31%
SMILES: CCN(CC)CCNC(=O)c1cc(Cl)c(N)cc1OC [metoclopramide, 4-amino-5-chloro-N-(2-(diethylamino)ethyl)-2-methoxybenzamide]
AUC∞, AUCt, and Cmax, women versus men ([2]; each dose of metoclopramide tested): significantly higher in women than in men | Treatment Emergent Adverse Events (TEAEs) and other safety parameters, males vs females ([2]; review of data of both studies): no differences between males and females | plasma protein binding [3]: approximately 30% | volume distribution of metoclopramide [3]: approximately 3.5 L/kg
